Assays:
Test in all cases: cells
Conditions in all cases: Homo sapiens
[1] = test system: UMUC3; type: functional, cell-based;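 note: growth inhibition of human UM-UC-3 cells, read out with a cell viability assay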
Description: SANGER: Inhibition of human UM-UC-3 cell growth in a cell viability assay.

[2] = test system: RD; type: functional, cell-based
Description: SANGER: Inhibition of human RD cell growth in a cell viability assay.

[3] = test system: SW1710; type: functional, cell-based;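 note: growth inhibition of SW1710 cells, determined with a cell viability assay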
Description: SANGER: Inhibition of human SW1710 cell growth in a cell viability assay.

[4] = test system: LK-2; type: functional, cell-based;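 note: growth inhibition of LK-2 cells, read out with a viability assay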
Description: SANGER: Inhibition of human LK-2 cell growth in a cell viability assay.

[5] = test system: NCI-H345; type: functional, cell-based;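 note: growth inhibition of NCI-H345 cells measured with a cell viability assay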
Description: SANGER: Inhibition of human NCI-H345 cell growth in a cell viability assay.

[6] = test system: RPMI-7951; type: functional, cell-based
Description: SANGER: Inhibition of human RPMI-7951 cell growth in a cell viability assay.

[7] = test system: LU-165; type: functional, cell-based
Description: SANGER: Inhibition of human LU-165 cell growth in a cell viability assay.

[8] = test system: NCI-H2405; type: functional, cell-based;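 note: growth inhibition of the human cell line, read out with a cell viability assay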
Description: SANGER: Inhibition of human NCI-H2405 cell growth in a cell viability assay.

[9] = test system: JEG-3; type: functional, cell-based;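 note: growth inhibition of human JEG-3 cells, read out with a cell viability assay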
Description: SANGER: Inhibition of human JEG-3 cell growth in a cell viability assay.

[10] = test system: ABC-1; type: functional, cell-based;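 note: growth inhibition of human ABC-1 cells, read out by a cell viability assay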
Description: SANGER: Inhibition of human ABC-1 cell growth in a cell viability assay.

[11] = test system: NCI-H292; type: functional, cell-based;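 note: growth inhibition of NCI-H292 cells, read out with a cell viability assay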
Description: SANGER: Inhibition of human NCI-H292 cell growth in a cell viability assay.

[12] = test system: EFO-21; type: functional, cell-based;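 note: growth inhibition of EFO-21 cells measured with a viability assay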
Description: SANGER: Inhibition of human EFO-21 cell growth in a cell viability assay.

[13] = test system: TGW; type: functional, cell-based;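 note: growth inhibition of human TGW cells, read out with a cell viability assay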
Description: SANGER: Inhibition of human TGW cell growth in a cell viability assay.

[14] = test system: COLO-678; type: functional, cell-based
Description: SANGER: Inhibition of human COLO-678 cell growth in a cell viability assay.

[15] = test system: GMS-10; type: functional, cell-based;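 note: growth inhibition of GMS-10 cells, read out as cell viability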
Description: SANGER: Inhibition of human GMS-10 cell growth in a cell viability assay.

[16] = test system: SK-HEP1; type: functional, cell-based, SK-HEP-1;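 note: cell viability readout used to quantify reduction in proliferation of human SK-HEP-1 cells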
Description: SANGER: Inhibition of human SK-HEP-1 cell growth in a cell viability assay.

[17] = test system: THP-1; type: functional, cell-based;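 note: growth inhibition of THP-1 cells, read out via a cell viability assay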
Description: SANGER: Inhibition of human THP-1 cell growth in a cell viability assay.

[18] = test system: P31-FUJ; type: functional, cell-based;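 note: growth inhibition of P31-FUJ cells, read out with a viability assay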
Description: SANGER: Inhibition of human P31-FUJ cell growth in a cell viability assay.

[19] = test system: SIG-M5; type: functional, cell-based;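 note: cell viability assay read-out, measuring how strongly growth of cultured human SIG-M5 cells is inhibited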
Description: SANGER: Inhibition of human SIG-M5 cell growth in a cell viability assay.

[20] = test system: SNU-C1; type: functional, cell-based;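 note: growth inhibition of SNU-C1 human cells, read out by a cell viability assay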
Description: SANGER: Inhibition of human SNU-C1 cell growth in a cell viability assay.

[21] = test system: DMS-153; type: functional, cell-based
Description: SANGER: Inhibition of human DMS-153 cell growth in a cell viability assay.

[22] = test system: J82; type: functional, cell-based;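 note: growth inhibition of J82 cells, read out with a cell viability assay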
Description: SANGER: Inhibition of human J82 cell growth in a cell viability assay.

[23] = test system: NCI-H2171; type: functional, cell-based;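 note: growth inhibition of human NCI-H2171 cells, read out by a cell viability assay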
Description: SANGER: Inhibition of human NCI-H2171 cell growth in a cell viability assay.

[24] = test system: U-251; type: functional, cell-based;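 note: growth inhibition of human U-251 cells, read out through a cell viability assay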
Description: SANGER: Inhibition of human U251 cell growth in a cell viability assay.

[25] = test system: CAL-72; type: functional, cell-based;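 note: cell viability assay measuring inhibition of proliferation in the CAL-72 cell line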
Description: SANGER: Inhibition of human CAL-72 cell growth in a cell viability assay.

[26] = test system: SW1417; type: functional, cell-based;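 note: growth inhibition of human SW1417 cells, read out with a cell viability assay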
Description: SANGER: Inhibition of human SW1417 cell growth in a cell viability assay.

[27] = test system: NCI-H1963; type: functional, cell-based;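 note: cell growth inhibition of the human line, determined with a cell viability assay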
Description: SANGER: Inhibition of human NCI-H1963 cell growth in a cell viability assay.

[28] = test system: KYSE-410; type: functional, cell-based;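 note: growth inhibition of KYSE-410 cells, measured through a cell viability readout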
Description: SANGER: Inhibition of human KYSE-410 cell growth in a cell viability assay.

[29] = test system: K052; type: functional, cell-based;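 note: Read-out from a cell viability assay, IC50 reflecting suppression of K052 cell growth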
Description: SANGER: Inhibition of human K052 cell growth in a cell viability assay.

[30] = test system: OE19; type: functional, cell-based;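 note: growth inhibition of OE19 cells, measured through a cell viability read-out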
Description: SANGER: Inhibition of human OE19 cell growth in a cell viability assay.

[31] = test system: ARH-77; type: functional, cell-based;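 note: growth inhibition of ARH-77 cells, read out by a cell viability assay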
Description: SANGER: Inhibition of human ARH-77 cell growth in a cell viability assay.

[32] = test system: NCI-H2141; type: functional, cell-based;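 note: growth inhibition of human NCI-H2141 cells, read out with a cell viability assay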
Description: SANGER: Inhibition of human NCI-H2141 cell growth in a cell viability assay.

[33] = test system: HGC-27; type: functional, cell-based;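 note: growth inhibition of human HGC-27 cells, read out in a cell viability assay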
Description: SANGER: Inhibition of human HGC-27 cell growth in a cell viability assay.

[34] = test system: NCI-H727; type: functional, cell-based;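 note: growth inhibition of human NCI-H727 cells, read out with a cell viability assay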
Description: SANGER: Inhibition of human NCI-H727 cell growth in a cell viability assay.

[35] = test system: RCM-1; type: functional, cell-based;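 note: growth inhibition of the RCM-1 line, determined with a cell viability readout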
Description: SANGER: Inhibition of human RCM-1 cell growth in a cell viability assay.

[36] = test system: CPC-N; type: functional, cell-based;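 note: growth inhibition of CPC-N cells, with a cell viability assay as the readout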
Description: SANGER: Inhibition of human CPC-N cell growth in a cell viability assay.

[37] = test system: CAL-39; type: functional, cell-based;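 note: cell viability assay measuring growth inhibition of CAL-39 cells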
Description: SANGER: Inhibition of human CAL-39 cell growth in a cell viability assay.

[38] = test system: HT-29; type: functional, cell-based;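 note: growth inhibition of human HT-29 cells, read out by a cell viability assay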
Description: SANGER: Inhibition of human HT-29 cell growth in a cell viability assay.

[39] = test system: NCI-N87; type: functional, cell-based;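 note: growth inhibition of human NCI-N87 cells, read out with a cell viability assay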
Description: SANGER: Inhibition of human NCI-N87 cell growth in a cell viability assay.

[40] = test system: SAS; type: functional, cell-based;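 note: growth inhibition of SAS cells, read out with a cell viability assay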
Description: SANGER: Inhibition of human SAS cell growth in a cell viability assay.

[41] = test system: GAMG; type: functional, cell-based;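 note: cell growth inhibition measured by a viability assay in the GAMG human cell line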
Description: SANGER: Inhibition of human GAMG cell growth in a cell viability assay.

[42] = test system: MKN-1; type: functional, cell-based;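 note: growth inhibition of human MKN1 cells, read out by a cell viability measurement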
Description: SANGER: Inhibition of human MKN1 cell growth in a cell viability assay.

[43] = test system: KYSE-510; type: functional, cell-based;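 note: cell viability readout used to measure how strongly growth of the cell line is suppressed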
Description: SANGER: Inhibition of human KYSE-510 cell growth in a cell viability assay.

[44] = test system: HuP-T3; type: functional, cell-based;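 note: HuP-T3 cell growth inhibition, read out with a cell viability assay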
Description: SANGER: Inhibition of human HuP-T3 cell growth in a cell viability assay.

[45] = test system: C-33-A; type: functional, cell-based;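 note: cell viability assay measuring growth inhibition of C-33-A cells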
Description: SANGER: Inhibition of human C-33-A cell growth in a cell viability assay.

[46] = test system: SNU-449; type: functional, cell-based
Description: SANGER: Inhibition of human SNU-449 cell growth in a cell viability assay.

[47] = test system: NCI-H1792; type: functional, cell-based;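 note: growth inhibition of human NCI-H1792 cells, read out as cell viability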
Description: SANGER: Inhibition of human NCI-H1792 cell growth in a cell viability assay.

[48] = test system: Ca9-22; type: functional, cell-based;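 note: growth inhibition of Ca9-22 cells, read out with a cell viability assay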
Description: SANGER: Inhibition of human Ca9-22 cell growth in a cell viability assay.

[49] = test system: GCT; type: functional, cell-based;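 note: GCT cell line proliferation inhibition, read out with a cell viability assay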
Description: SANGER: Inhibition of human GCT cell growth in a cell viability assay.

[50] = test system: HuO-3N1; type: functional, cell-based;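 note: cell viability readout used to measure how strongly compounds suppress proliferation of human HuO-3N1 cells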
Description: SANGER: Inhibition of human HuO-3N1 cell growth in a cell viability assay.

[51] = test system: HCC1806; type: functional, cell-based;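 note: growth inhibition of the cancer cell line, determined with a cell viability assay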
Description: SANGER: Inhibition of human HCC1806 cell growth in a cell viability assay.

[52] = test system: SK-MEL3; type: functional, cell-based, SK-MEL-3;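 note: growth inhibition of human SK-MEL-3 cells, read out with a cell viability assay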
Description: SANGER: Inhibition of human SK-MEL-3 cell growth in a cell viability assay.

[53] = test system: Ca-Ski; type: functional, cell-based;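 note: cell viability assay measuring inhibition of Ca-Ski cell growth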
Description: SANGER: Inhibition of human Ca-Ski cell growth in a cell viability assay.

[54] = test system: YKG-1; type: functional, cell-based;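 note: cell growth inhibition, read out with a viability assay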
Description: SANGER: Inhibition of human YKG-1 cell growth in a cell viability assay.

[55] = test system: CA46; type: functional, cell-based
Description: SANGER: Inhibition of human CA46 cell growth in a cell viability assay.

[56] = test system: U2OS; type: functional, cell-based, U-2-OS
Description: SANGER: Inhibition of human U-2-OS cell growth in a cell viability assay.

[57] = test system: SCC-25; type: functional, cell-based
Description: SANGER: Inhibition of human SCC-25 cell growth in a cell viability assay.

[58] = test system: KYSE-450; type: functional, cell-based
Description: SANGER: Inhibition of human KYSE-450 cell growth in a cell viability assay.

[59] = test system: HCC1954; type: functional, cell-based
Description: SANGER: Inhibition of human HCC1954 cell growth in a cell viability assay.

[60] = test system: U-698-M; type: functional, cell-based
Description: SANGER: Inhibition of human U-698-M cell growth in a cell viability assay.

[61] = test system: CAL-120; type: functional, cell-based
Description: SANGER: Inhibition of human CAL-120 cell growth in a cell viability assay.

[62] = test system: Huh-7; type: functional, cell-based
Description: SANGER: Inhibition of human HuH-7 cell growth in a cell viability assay.

[63] = test system: BPH-1; type: functional, cell-based
Description: SANGER: Inhibition of human BPH-1 cell growth in a cell viability assay.

[64] = test system: HTC-C3; type: functional, cell-based
Description: SANGER: Inhibition of human HTC-C3 cell growth in a cell viability assay.

[65] = test system: PA-1; type: functional, cell-based
Description: SANGER: Inhibition of human PA-1 cell growth in a cell viability assay.

For `Fc1cc(-c2cc[nH]/c(=N/c3ccc(-n4cnc(N5CCOCC5)n4)cc3)n2)cc(N2CCOCC2)c1`, the IC50 [1] was 1270 nM, the IC50 [2] was 1300 nM and the IC50 [3] was 232 nM. For the same molecule, the IC50 [4] was 849 nM, the IC50 [5] was 4540 nM and the IC50 [6] was 721 nM. The IC50 [7] was 825 nM, the IC50 [8] was 1210 nM and the IC50 [9] was 705 nM. It also gave an IC50 [10] of 889 nM, an IC50 [11] of 508 nM and an IC50 [12] of 913 nM. For the same molecule, the IC50 [13] was 3470 nM, the IC50 [14] was 3650 nM and the IC50 [15] was 2840 nM. The IC50 [16] was 410 nM, the IC50 [17] was 1050 nM and the IC50 [18] was 4640 nM. For the same molecule, the IC50 [19] was 124 nM, the IC50 [20] was 390 nM and the IC50 [21] was 1240 nM. For the same molecule, the IC50 [22] was 800 nM, the IC50 [23] was 792 nM and the IC50 [24] was 1310 nM. The IC50 [25] was > 5120 nM, the IC50 [26] was 885 nM and the IC50 [27] was 873 nM. For the same molecule, the IC50 [28] was 1280 nM, the IC50 [29] was 508 nM and the IC50 [30] was 1100 nM. The IC50 [31] was 574 nM, the IC50 [32] was > 5120 nM and the IC50 [33] was 284 nM. It also gave an IC50 [34] of 647 nM, an IC50 [35] of 1760 nM and an IC50 [36] of 4220 nM. For the same molecule, the IC50 [37] was 309 nM, the IC50 [38] was 358 nM and the IC50 [39] was > 5120 nM. The IC50 [40] was 1940 nM, the IC50 [41] was 1340 nM and the IC50 [42] was 549 nM. For the same molecule, the IC50 [43] was 447 nM, the IC50 [44] was > 5120 nM and the IC50 [45] was 253 nM. The IC50 [46] was 522 nM, the IC50 [47] was 2490 nM and the IC50 [48] was 389 nM. The IC50 [49] was 204 nM, the IC50 [50] was 1570 nM and the IC50 [51] was 637 nM. The IC50 [52] was 877 nM, the IC50 [53] was 532 nM and the IC50 [54] was 724 nM. The IC50 [55] was 333 nM, the IC50 [56] was > 5120 nM and the IC50 [57] was 196 nM. The IC50 [58] was 329 nM, the IC50 [59] was 1220 nM and the IC50 [60] was 282 nM. It also gave an IC50 [61] of 1420 nM, an IC50 [62] of 756 nM and an IC50 [63] of 1970 nM. For the same molecule, the IC50 [64] was 1240 nM and the IC50 [65] was 102 nM.

`CC(O)(CS(=O)(=O)c1ccc(F)cc1)C(=O)Nc1ccc(C#N)c(C(F)(F)F)c1` (stereo not given) [BICALUTAMIDE] was tested, and the IC50 [1] was > 1020 nM, the IC50 [2] was > 1020 nM and the IC50 [3] was > 1020 nM. The IC50 [4] was > 1020 nM, the IC50 [5] was > 1020 nM and the IC50 [6] was > 1020 nM. For the same molecule, the IC50 [7] was > 1020 nM, the IC50 [8] was > 1020 nM and the IC50 [9] was > 1020 nM. The IC50 [10] was > 1020 nM, the IC50 [11] was > 1020 nM and the IC50 [12] was > 1020 nM. For the same molecule, the IC50 [13] was > 1020 nM, the IC50 [14] was > 1020 nM and the IC50 [15] was > 1020 nM. For the same molecule, the IC50 [16] was > 1020 nM, the IC50 [17] was > 1020 nM and the IC50 [18] was > 1020 nM. For the same molecule, the IC50 [19] was > 1020 nM, the IC50 [20] was > 1020 nM and the IC50 [21] was > 1020 nM. For the same molecule, the IC50 [22] was > 1020 nM, the IC50 [23] was > 1020 nM and the IC50 [24] was > 1020 nM. The IC50 [25] was > 1020 nM, the IC50 [26] was > 1020 nM and the IC50 [27] was > 1020 nM. For the same molecule, the IC50 [28] was > 1020 nM, the IC50 [29] was > 1020 nM and the IC50 [30] was > 1020 nM. For the same molecule, the IC50 [31] was > 1020 nM, the IC50 [32] was > 1020 nM and the IC50 [33] was > 1020 nM. For the same molecule, the IC50 [34] was > 1020 nM, the IC50 [35] was > 1020 nM and the IC50 [36] was > 1020 nM. The IC50 [37] was > 1020 nM, the IC50 [38] was > 1020 nM and the IC50 [39] was > 1020 nM. The IC50 [40] was > 1020 nM, the IC50 [41] was > 1020 nM and the IC50 [42] was > 1020 nM. For the same molecule, the IC50 [43] was > 1020 nM, the IC50 [44] was > 1020 nM and the IC50 [45] was > 1020 nM. For the same molecule, the IC50 [46] was > 1020 nM, the IC50 [47] was > 1020 nM and the IC50 [48] was > 1020 nM. For the same molecule, the IC50 [49] was > 1020 nM, the IC50 [50] was > 1020 nM and the IC50 [51] was > 1020 nM. For the same molecule, the IC50 [52] was > 1020 nM, the IC50 [53] was > 1020 nM and the IC50 [54] was > 1020 nM. For the same molecule, the IC50 [55] was > 1020 nM, the IC50 [56] was > 1020 nM and the IC50 [57] was > 1020 nM. The IC50 [58] was > 1020 nM, the IC50 [59] was > 1020 nM and the IC50 [60] was > 1020 nM. For the same molecule, the IC50 [61] was > 1020 nM, the IC50 [62] was > 1020 nM and the IC50 [63] was > 1020 nM. The IC50 [64] was > 1020 nM and the IC50 [65] was > 1020 nM.

— ChEMBL document CHEMBL1201861, “Genomics of Drug Sensitity in Cancer screening data, Wellcome Trust Sanger Institute”
